Results taken from patent publication US20080051418A1, “Arylalkanoic Acid Derivative” (priority 2004, published 2008).
pEC50: −log10 of the molar value. Counter-ions that a name gives are not always drawn. Like-named read-outs stand apart in the source and are kept apart here.

Experiments:
[1] = tested on: KKA^y mice; test: Blood glucose and blood lipid (triglyceride) lowering action in mice; assay type: in vivo; details: Mus musculus, po, 96 h, 0.005% in powder diet, 4 days, non-administration group = 100%
From the text: The test compound was mixed with a powder diet (CE-2, CLEA JAPAN, INC.) at a proportion of 0.005% (0.01% for the compound of Example 105) and freely given to KKA^y mice (9 to 12-week-old, 5 mice per group) which are obesity-insulin independent diabetes mellitus (type-2 diabetes) models, for 4 days. During this period, water was freely given. The blood was drawn from the orbital venous plexus. Glucose and triglyceride in the plasma separated from the blood were quantitated using L Type Wako Glu2 (Wako Pure Chemical Industries, Ltd.) and L Type Wako TG•H (Wako Pure Chemical Industries, Ltd.), respectively, according to an enzyme method.

[2] = target: T1, PPARγ-RXRα heterodimer (Homo sapiens, UniProt P37231); test: PPARγ-RXRα heterodimer ligand activity (luciferase reporter); assay type: cell-based; details: PPARγ:RXRα:4ERPP/CHO-K1 cells, 18-24 hr, concentration showing 50% of the maximum induction rate
T1 construct: expressed in transfected cells; host or cells: CHO-K1
T1 sequence (P37231 1-505): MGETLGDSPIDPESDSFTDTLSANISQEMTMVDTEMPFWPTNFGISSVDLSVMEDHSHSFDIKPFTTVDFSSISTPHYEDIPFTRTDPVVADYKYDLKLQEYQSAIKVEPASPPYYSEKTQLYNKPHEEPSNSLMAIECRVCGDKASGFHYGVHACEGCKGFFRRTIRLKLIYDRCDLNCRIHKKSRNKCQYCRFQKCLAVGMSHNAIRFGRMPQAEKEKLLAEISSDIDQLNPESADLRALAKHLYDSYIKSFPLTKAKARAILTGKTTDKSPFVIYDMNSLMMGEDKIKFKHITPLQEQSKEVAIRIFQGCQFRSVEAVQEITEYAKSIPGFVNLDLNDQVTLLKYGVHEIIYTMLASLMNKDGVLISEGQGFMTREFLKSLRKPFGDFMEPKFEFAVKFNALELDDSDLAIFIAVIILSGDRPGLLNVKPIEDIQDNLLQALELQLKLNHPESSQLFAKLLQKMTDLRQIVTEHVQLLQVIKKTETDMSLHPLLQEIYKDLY
T1 sequence (P19793 1-462 partner): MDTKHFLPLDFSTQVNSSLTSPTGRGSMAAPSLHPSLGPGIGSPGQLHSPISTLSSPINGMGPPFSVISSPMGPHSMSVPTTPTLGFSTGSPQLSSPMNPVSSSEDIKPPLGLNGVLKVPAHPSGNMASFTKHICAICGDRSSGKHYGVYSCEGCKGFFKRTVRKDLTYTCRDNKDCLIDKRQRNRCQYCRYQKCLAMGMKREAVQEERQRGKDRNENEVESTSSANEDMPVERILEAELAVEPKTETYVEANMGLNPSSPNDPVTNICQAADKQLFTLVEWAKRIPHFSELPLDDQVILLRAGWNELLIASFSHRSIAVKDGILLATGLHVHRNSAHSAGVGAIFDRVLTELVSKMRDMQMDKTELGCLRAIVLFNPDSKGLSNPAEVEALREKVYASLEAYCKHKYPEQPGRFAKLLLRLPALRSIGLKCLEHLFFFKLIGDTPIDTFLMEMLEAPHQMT
Method: The PPARγ:RXRα:4ERPP/CHO-K1 cells described in WO03/099793 were cultured in a Ham F12 medium [manufactured by Life Technologies, Inc., US] containing 10% calf fetal serum [manufactured by Life Technologies, Inc., US], sown in a 96-well white plate [manufactured by Corning Coster Corporation, US] at 2×10^4 cells/well, and incubated overnight in a carbon dioxide gas incubator at 37° C.
Then, the medium was removed from the 96 well white plate, 80 μl of Ham F12 medium containing 0.1% fatty acid-free bovine serum albumin (BSA) and a test compound (20 μl) were added, and the cells were incubated for 18-24 hr in a carbon dioxide gas incubator at 37° C. The medium was removed, 40 μl of PicaGene 7.5 (manufactured by Wako Pure Chemical Industries, Ltd.) diluted 2-fold with HBSS (HANKS' BALANCED SALT SOLUTION) [manufactured by BIO WHITTAKER, US] was added. After stirring, the luciferase activity was determined using the 1420 ARVO Multilabel Counter [manufactured by PerkinElmer, US].
(§1) The induction rate was calculated from the luciferase activity of each test compound based on the luciferase activity of the test compound non-administration group as 1. The test compound concentration and the induction rate were analyzed by PRISM [manufactured by GraphPad Software, Inc., US] to calculate EC50 value (compound concentration showing 50% of the maximum value of induction rate) of the test compound.

[3] = target: T2, PPARδ-RXRα heterodimer (Homo sapiens, UniProt Q03181); test: PPARδ-RXRα heterodimer ligand activity (luciferase reporter); assay type: cell-based; details: transformant of Reference Example 9a of WO03/099793, 36-48 hr, concentration showing 50% of the maximum induction rate
T2 construct: expressed in transfected cells
T2 sequence (Q03181 1-441): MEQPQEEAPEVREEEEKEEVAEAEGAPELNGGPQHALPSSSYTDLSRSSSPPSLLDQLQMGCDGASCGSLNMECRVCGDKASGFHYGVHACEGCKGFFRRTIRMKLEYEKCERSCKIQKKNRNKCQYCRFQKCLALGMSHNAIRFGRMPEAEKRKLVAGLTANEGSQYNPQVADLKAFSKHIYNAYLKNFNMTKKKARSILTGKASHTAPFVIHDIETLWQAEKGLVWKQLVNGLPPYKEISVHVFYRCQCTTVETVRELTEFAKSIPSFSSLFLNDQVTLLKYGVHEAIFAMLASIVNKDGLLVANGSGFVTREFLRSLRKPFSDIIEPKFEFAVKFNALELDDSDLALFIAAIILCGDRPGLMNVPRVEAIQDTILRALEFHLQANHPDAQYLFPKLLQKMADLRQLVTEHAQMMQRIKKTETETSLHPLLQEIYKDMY
T2 sequence (P19793 1-462 partner): T1 sequence (P19793 1-462 partner)
Method: The transformant described in Reference Example 9a of WO03/099793 was suspended in a DMEM medium [manufactured by Life technologies, Inc., US] containing 0.1% fatty acid-free bovine serum albumin (BSA) (manufactured by Wako Pure Chemical Industries, Ltd.), and inoculated to each well of a 96 well white plate [manufactured by Corning Coster Corporation, US] by 80 μl to 1×10^4 cells/well. Then, the test compound (20 μl) was added, and cultured under the conditions of 37° C., 5% CO2 for 36-48 hr. The medium was removed from the 96 well white plate, 40 μl of PicaGene LT 7.5 (manufactured by Wako Pure Chemical Industries, Ltd.) diluted 2-fold with HBSS (HANKS' BALANCED SALT SOLUTION) [manufactured by BIO WHITTAKER, US] was added and, after stirring, the luciferase activity was determined using the 1420 ARVO Multilabel Counter [manufactured by PerkinElmer, US].
as §1

[4] = lowering rate of plasma glucose, read-out: hypoglycemic action (%)
[5] = lowering rate of plasma triglyceride, read-out: hypolipidemic action (%)

Q: With COc1cccc(CC(=O)O)c1OCCCc1cc(OC(C)C)nn1C(C)c1ccc(Cl)cc1Cl (stereo not shown) [Example 17, [2-(3-{1-[1-(2,4-dichlorophenyl)ethyl]-3-isopropoxy-1H-pyrazol-5-yl}propoxy)-3-methoxyphenyl]acetic acid] as the compound, how does the inhibition in vivo at 0.005 % [1, 4] read?
A: 57%

Q: What about the inhibition in vivo at 0.005 % [1, 5] of the same compound?
A: 78%

Q: What about the pEC50 [2] of the same compound?
A: 8.21

Q: For COc1cccc(CC(=O)O)c1OCCCc1cc(OC(C)C)nn1Cc1ccccc1C [Example 21, (2-{3-[3-isopropoxy-1-(2-methylbenzyl)-1H-pyrazol-5-yl]propoxy}-3-methoxyphenyl)acetic acid], which inhibition in vivo at 0.005 % [1, 4] is on record?
A: 51%

Q: What about the inhibition in vivo at 0.005 % [1, 5] of the same compound?
A: 78%

Q: And the pEC50 [2]?
A: 7.39

Q: Which inhibition in vivo at 0.005 % [1, 4] does the source give for CC(C)Oc1cc(CCCOc2ncccc2CC(=O)O)n(Cc2ccc(Cl)cc2Cl)n1 [Example 31, (2-{3-[1-(2,4-dichlorobenzyl)-3-isopropoxy-1H-pyrazol-5-yl]propoxy}pyridin-3-yl)acetic acid] here?
A: 44%

Q: And the inhibition in vivo at 0.005 % [1, 5]?
A: 55%

Q: And the melting point?
A: 88 to 90 °C

Q: And the pEC50 [2]?
A: 7.85

Q: Which results are given for COc1cccc(CC(=O)O)c1OCCCc1cc(OC(C)C)nn1Cc1ccc(F)cc1F [Example 60, (2-{3-[1-(2,4-difluorobenzyl)-3-isopropoxy-1H-pyrazol-5-yl]propoxy}-3-methoxyphenyl)acetic acid]?
A: inhibition in vivo at 0.005 % [1, 4]: 54%; inhibition in vivo at 0.005 % [1, 5]: 76%

Q: With COc1cccc(CC(=O)O)c1OCCCc1cc(OC(C)C)nn1Cc1ccccc1Cl [Example 61, (2-{3-[1-(2-chlorobenzyl)-3-isopropoxy-1H-pyrazol-5-yl]propoxy}-3-methoxyphenyl)acetic acid] as the compound, how does the inhibition in vivo at 0.005 % [1, 4] read?
A: 51%

Q: What about the inhibition in vivo at 0.005 % [1, 5] of the same compound?
A: 90%

Q: What about the pEC50 [2] of the same compound?
A: 7.60

Q: With COc1cccc(CC(=O)O)c1OCCCc1cc(OC(C)C)nn1Cc1ccc(Cl)cc1OC(C)C [Example 70, (2-{3-[1-(4-chloro-2-isopropoxybenzyl)-3-isopropoxy-1H-pyrazol-5-yl]propoxy}-3-methoxyphenyl)acetic acid] as the compound, how does the pEC50 [3] read?
A: 7.22

Q: With CC(C)c1cc(CCCOc2nn(Cc3ccccc3)cc2CC(=O)O)n(Cc2ccc(C(F)(F)F)cc2Cl)n1 [Example 76, [1-benzyl-3-(3-{1-[2-chloro-4-(trifluoromethyl)benzyl]-3-isopropyl-1H-pyrazol-5-yl}propoxy)-1H-pyrazol-4-yl]acetic acid 1/2 calcium salt] as the compound, how does the inhibition in vivo at 0.005 % [1, 4] read?
A: 64%

Q: And the inhibition in vivo at 0.005 % [1, 5]?
A: 57%

Q: And the pEC50 [2]?
A: 8.82

Q: What does the source list for CC(C)c1cc(CCCOc2ncccc2CC(=O)O)n(Cc2ccc(C(F)(F)F)cc2Cl)n1 [Example 77, [2-(3-{1-[2-chloro-4-(trifluoromethyl)benzyl]-3-isopropyl-1H-pyrazol-5-yl}propoxy)pyridin-3-yl]acetic acid]?
A: inhibition in vivo at 0.005 % [1, 4]: 63%; inhibition in vivo at 0.005 % [1, 5]: 42%; melting point: 114 to 115 °C; pEC50 [2]: 8.27

Q: With Cc1cc(C(F)(F)F)ccc1Cn1nc(OC(C)C)cc1CCCOc1nn(Cc2ccccc2)cc1CC(=O)O [Example 78, [1-benzyl-3-(3-{3-isopropoxy-1-[2-methyl-4-(trifluoromethyl)benzyl]-1H-pyrazol-5-yl}propoxy)-1H-pyrazol-4-yl]acetic acid] as the compound, how does the inhibition in vivo at 0.005 % [1, 4] read?
A: 63%

Q: And the inhibition in vivo at 0.005 % [1, 5]?
A: 55%

Q: And the pEC50 [2]?
A: 8.89

Q: Which inhibition in vivo at 0.005 % [1, 4] does the source give for CC(C)Oc1cc(CCCOc2nn(Cc3ccccc3)cc2CC(=O)O)n(Cc2ccc(Cl)cc2Cl)n1 [Example 86, (1-benzyl-3-{3-[1-(2,4-dichlorobenzyl)-3-isopropoxy-1H-pyrazol-5-yl]propoxy}-1H-pyrazol-4-yl)acetic acid] here?
A: 51%

Q: And the inhibition in vivo at 0.005 % [1, 5]?
A: 51%

Q: And the melting point?
A: 108 to 110 °C

Q: And the pEC50 [2]?
A: 8.60

Q: What does the source list for COCOc1cc(CCCOc2nn(Cc3ccccc3)cc2CC(=O)O)n(Cc2ccc(Cl)cc2Cl)n1 [Example 95, (1-benzyl-3-{3-[1-(2,4-dichlorobenzyl)-3-(methoxymethoxy)-1H-pyrazol-5-yl]propoxy}-1H-pyrazol-4-yl)acetic acid]?
A: inhibition in vivo at 0.005 % [1, 4]: 65%; inhibition in vivo at 0.005 % [1, 5]: 65%; melting point: 89.5 to 91.5 °C; pEC50 [2]: 8.62

Q: With COc1cccc(CC(=O)O)c1OCCCc1ccc(Oc2ccc(C(F)(F)F)cn2)cc1OC(C)C [Example 101, {2-[3-(2-isopropoxy-4-{[5-(trifluoromethyl)pyridin-2-yl]oxy}phenyl)propoxy]-3-methoxyphenyl}acetic acid] as the compound, how does the pEC50 [3] read?
A: 7.36

Q: Which inhibition in vivo at 0.005 % [1, 4] does the source give for CCn1nc(OCCCc2ccc(OCCOC)cc2Oc2ncc(C(F)(F)F)cc2Cl)cc1CCC(=O)O [Example 149, 3-(3-{3-[2-{[3-chloro-5-(trifluoromethyl)pyridin-2-yl]oxy}-4-(2-methoxyethoxy)phenyl]propoxy}-1-ethyl-1H-pyrazol-5-yl)propanoic acid] here?
A: 57%

Q: And the inhibition in vivo at 0.005 % [1, 5]?
A: 51%

Q: And the melting point?
A: 101 to 103 °C

Q: What about the pEC50 [2] of the same compound?
A: 8.30

Q: What does the source list for CCn1nc(OCCCc2ccc(OCCOC(C)C)cc2Oc2ncc(C(F)(F)F)cc2Cl)cc1CCC(=O)O [Example 150, 3-(3-{3-[2-{[3-chloro-5-(trifluoromethyl)pyridin-2-yl]oxy}-4-(2-isopropoxyethoxy)phenyl]propoxy}-1-ethyl-1H-pyrazol-5-yl)propanoic acid]?
A: inhibition in vivo at 0.005 % [1, 4]: 58%; inhibition in vivo at 0.005 % [1, 5]: 54%; melting point: 130.5 to 131.5 °C; pEC50 [2]: 8.59
